Laboratory results as given in PubChem BioAssay AID248 (DTP/NCI, 2004).
Inconclusive results and toxic doses are left out. No stated cut-off is given here; in the data, active means T/C of 150% or more; inactive means T/C below 125%.

Tested on: L1210 leukemia ip in BDF1 mice, survival T/C
Assay: NCI In Vivo Anticancer Drug Screen. Data for tumor model L1210 Leukemia (intraperitoneal) in B6D2F1 (BDF1) mice
Settings: endpoint: mean survival time, higher = longer survival
In short: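 Tumor cells were implanted, animals were treated, and survival was followed. The result divides the treated measurement by the vehicle-control measurement.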

[1] = dose: 50.0 mg/kg/injection, schedule: Q01DX009 (ip), vehicle: saline
[2] = dose: 100.0 mg/kg/injection, schedule: Q01DX009 (ip), vehicle: saline
[3] = dose: 100.0 mg/kg/injection, schedule: Q04DX003 (ip), vehicle: saline
[4] = dose: 200.0 mg/kg/injection, schedule: Q01DX009 (ip), vehicle: saline
[5] = dose: 200.0 mg/kg/injection, schedule: Q04DX003 (ip), vehicle: saline
[6] = dose: 400.0 mg/kg/injection, schedule: Q04DX003 (ip), vehicle: saline
[7] = dose: 100.0 mg/kg/injection, schedule: Q04DX003 (ip), vehicle: Klucel (hydroxypropylcellulose) (HPC)
[8] = dose: 100.0 mg/kg/injection, schedule: Q04DX003 (ip), vehicle: saline with Tween-80
[9] = dose: 200.0 mg/kg/injection, schedule: Q04DX003 (ip), vehicle: Klucel (hydroxypropylcellulose) (HPC)
[10] = dose: 200.0 mg/kg/injection, schedule: Q04DX003 (ip), vehicle: saline with Tween-80
[11] = dose: 400.0 mg/kg/injection, schedule: Q04DX003 (ip), vehicle: Klucel (hydroxypropylcellulose) (HPC)
[12] = dose: 400.0 mg/kg/injection, schedule: Q04DX003 (ip), vehicle: saline with Tween-80
[13] = dose: 100.0 mg/kg/injection, schedule: Q01DX001 (ip), vehicle: carboxymethylcellulose (CMC)
[14] = dose: 200.0 mg/kg/injection, schedule: Q01DX001 (ip), vehicle: carboxymethylcellulose (CMC)
[15] = dose: 100.0 mg/kg/injection, schedule: Q01DX001 (ip), vehicle: saline
[16] = dose: 200.0 mg/kg/injection, schedule: Q01DX001 (ip), vehicle: saline
[17] = dose: 400.0 mg/kg/injection, schedule: Q01DX001 (ip), vehicle: saline
[18] = dose: 200.0 mg/kg/injection, schedule: Q04DX002 (ip), vehicle: saline with Tween-80
[19] = dose: 400.0 mg/kg/injection, schedule: Q04DX002 (ip), vehicle: saline with Tween-80
[20] = dose: 400.0 mg/kg/injection, schedule: Q01DX001 (ip), vehicle: carboxymethylcellulose (CMC)

Measured: T/C

CS(=O)(=O)c1nsc(S(C)(=O)=O)c1C#N
inactive: dose: 100.0 mg/kg/injection, schedule: Q04DX003 (ip), vehicle: carboxymethylcellulose (CMC) 95 % of control | dose: 200.0 mg/kg/injection, schedule: Q04DX003 (ip), vehicle: carboxymethylcellulose (CMC) 97 % of control | dose: 400.0 mg/kg/injection, schedule: Q04DX003 (ip), vehicle: carboxymethylcellulose (CMC) 95 % of control

COC1OC2COc3ccccc3OC2C2C1N2C(C)=O (centres undefined)
inactive: dose: 100.0 mg/kg/injection, schedule: Q04DX002 (ip), vehicle: Klucel (hydroxypropylcellulose) (HPC) 113 % of control | dose: 200.0 mg/kg/injection, schedule: Q04DX002 (ip), vehicle: Klucel (hydroxypropylcellulose) (HPC) 98 % of control

CCCn1nnc2ccccc2c1=Nc1ccccc1Cl
inactive: [1] 97 % of control | [2] 88 % of control | [3] 110 % of control | [4] 97 % of control | [5] 106 % of control | [6] 100 % of control

Cc1cc(-c2cc(C)c(O)c(C(C)(C)C)c2)cc(C(C)(C)C)c1O
inactive: dose: 25.0 mg/kg/injection, schedule: Q04DX002 (ip), vehicle: gum acacia 95 % of control | dose: 50.0 mg/kg/injection, schedule: Q04DX002 (ip), vehicle: gum acacia 95 % of control | dose: 100.0 mg/kg/injection, schedule: Q04DX002 (ip), vehicle: gum acacia 91 % of control

O=C(O)C(Cl)c1ccccc1 (centres undefined)
inactive: dose: 25.0 mg/kg/injection, schedule: Q01DX009 (ip), vehicle: gum acacia 114 % of control | dose: 50.0 mg/kg/injection, schedule: Q01DX009 (ip), vehicle: gum acacia 109 % of control | dose: 100.0 mg/kg/injection, schedule: Q01DX009 (ip), vehicle: gum acacia 106 % of control | [7] 92 % of control | [8] 95 % of control | [9] 93 % of control | [10] 101 % of control | [11] 97 % of control | [12] 88 % of control

COc1ccc(OC)c2c(=O)cc[nH]c12
inactive: [13] 103 % of control | [14] 94 % of control

Cc1ccc(-c2nc(C#N)c(C#N)nc2-c2ccc(C)cc2)cc1
inactive: [15] 98 % of control | [16] 101 % of control | [17] 101 % of control

CCOC(=O)/C(C#N)=C\C1(C)CCC(C)=CO1 (centres undefined)
inactive: dose: 100.0 mg/kg/injection, schedule: Q01DX009 (ip), vehicle: saline with Tween-80 96 % of control | dose: 100.0 mg/kg/injection, schedule: Q04DX002 (ip), vehicle: saline with Tween-80 92 % of control | dose: 200.0 mg/kg/injection, schedule: Q01DX009 (ip), vehicle: saline with Tween-80 110 % of control | [18] 115 % of control | dose: 400.0 mg/kg/injection, schedule: Q01DX009 (ip), vehicle: saline with Tween-80 100 % of control | [19] 96 % of control

O=C(C#Cc1ccccc1)N1CCCCC1
inactive: [18] 98 % of control | [19] 101 % of control

COc1cc2ccc3c(c2cc1OC)CNCC3
inactive: [1] 104 % of control | [2] 104 % of control | [3] 116 % of control | [4] 88 % of control | [5] 102 % of control

CC(=O)Oc1ccccc1OC(=S)N(C)C
inactive: [8] 106 % of control | [10] 111 % of control | [12] 105 % of control

CN(C)c1ccc(C=Nc2cc(Cl)ccc2O)cc1
inactive: [15] 107 % of control | [16] 100 % of control | [17] 100 % of control

CC(=O)C(C(C)=O)C(=O)c1ccccc1
inactive: dose: 222.0 mg/kg/injection, schedule: Q01DX Z (ip), vehicle: saline 100 % of control | dose: 333.0 mg/kg/injection, schedule: Q01DX Z (ip), vehicle: saline 90 % of control | dose: 500.0 mg/kg/injection, schedule: Q01DX Z (ip), vehicle: saline 103 % of control

NC(=O)Cc1ccc2c(c1)[nH]c1ccccc12
inactive: dose: 100.0 mg/kg/injection, schedule: Q01DX001 (ip), vehicle: Klucel (hydroxypropylcellulose) (HPC) 96 % of control | [7] 102 % of control | dose: 200.0 mg/kg/injection, schedule: Q01DX001 (ip), vehicle: Klucel (hydroxypropylcellulose) (HPC) 94 % of control | [9] 105 % of control | dose: 400.0 mg/kg/injection, schedule: Q01DX001 (ip), vehicle: Klucel (hydroxypropylcellulose) (HPC) 100 % of control | [11] 103 % of control

Nc1ncnc2c1ncn2C1OC(CCO)C(O)C1O (centres undefined)
inactive: [13] 100 % of control | [14] 96 % of control | [20] 93 % of control

CCCCCCCCCCCCCCCCOc1ccc(S(=O)(=O)N(Cc2ccccc2)Cc2ccccc2)cc1[N+](=O)[O-]
inactive: [8] 86 % of control | [10] 95 % of control | [12] 90 % of control

COC(=O)/C=C\C=C\C(=O)OC
inactive: dose: 50.0 mg/kg/injection, schedule: Q01DX001 (ip), vehicle: carboxymethylcellulose (CMC) 95 % of control | [13] 94 % of control | [14] 98 % of control | [20] 98 % of control

CC(=O)OC1=C(C)CCCC(C)(C)C1
inactive: dose: 75.0 mg/kg/injection, schedule: Q01DX001 (ip), vehicle: other 92 % of control | dose: 150.0 mg/kg/injection, schedule: Q01DX001 (ip), vehicle: other 92 % of control | dose: 300.0 mg/kg/injection, schedule: Q01DX001 (ip), vehicle: other 97 % of control

CC1=CC(C)C(=O)N(C)C(C)=C1 (centres undefined)
inactive: dose: 75.0 mg/kg/injection, schedule: Q01DX001 (ip), vehicle: carboxymethylcellulose (CMC) 97 % of control | dose: 150.0 mg/kg/injection, schedule: Q01DX001 (ip), vehicle: carboxymethylcellulose (CMC) 91 % of control | dose: 300.0 mg/kg/injection, schedule: Q01DX001 (ip), vehicle: carboxymethylcellulose (CMC) 92 % of control

CC(C)OP(=S)(S)OC(C)C
inactive: [3] 112 % of control | [5] 96 % of control | [6] 102 % of control

c1ccc(-c2cc3ccccc3[nH]2)nc1
inactive: [7] 95 % of control | [9] 93 % of control | [11] 93 % of control

C=CC(=O)c1c(O)cc(O)c2c1C(C)C(=O)O2 (centres undefined)
inactive: dose: 50.0 mg/kg/injection, schedule: Q01DX001 (ip), vehicle: saline 104 % of control | dose: 75.0 mg/kg/injection, schedule: Q01DX009 (ip), vehicle: Klucel (hydroxypropylcellulose) (HPC) 89 % of control | [15] 101 % of control | [7] 106 % of control | [16] 104 % of control

Cc1cc(C)c(-n2c(-c3ccc(Cl)cc3)nnc2-c2ccc(Br)cc2)c(C)c1
inactive: [7] 101 % of control | [9] 90 % of control | [11] 95 % of control

COC(=O)C(CCSC)NC(=O)C(NC(=O)c1cnc2ccccc2n1)C(C)C (centres undefined)
inactive: [13] 91 % of control | [14] 89 % of control | [20] 96 % of control
